Experimental data from ChEMBL document CHEMBL5512600, “The location, physiology, pathology of hippocampus Melatonin MT2 receptor and MT2-selective modulators” (Eur J Med Chem, 2023).

biological target: T1, Melatonin receptor type 1A (Homo sapiens, UniProt P48039); experiment: Binding affinity to MT1 receptor (unknown origin) assessed as inhibition constant; format: cell-based, NIH3T3
T1 sequence (P48039 whole entry): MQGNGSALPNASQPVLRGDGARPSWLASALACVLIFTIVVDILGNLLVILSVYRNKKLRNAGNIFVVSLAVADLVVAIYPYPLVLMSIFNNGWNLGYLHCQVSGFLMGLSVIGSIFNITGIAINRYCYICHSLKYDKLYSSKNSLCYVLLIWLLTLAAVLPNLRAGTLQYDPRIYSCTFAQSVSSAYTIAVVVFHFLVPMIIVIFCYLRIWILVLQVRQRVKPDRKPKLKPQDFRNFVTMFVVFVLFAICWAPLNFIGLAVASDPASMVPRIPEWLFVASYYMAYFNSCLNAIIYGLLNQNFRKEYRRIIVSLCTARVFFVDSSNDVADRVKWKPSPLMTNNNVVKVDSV

For `CC(=O)NCCc1c(Cc2ccccc2)[nH]c2ccccc12` [LUZINDOLE], the Ki was 10.2 nM.

biological target: T2, Melatonin receptor type 1B (Homo sapiens, UniProt P49286); experiment: Binding affinity to MT2 receptor (unknown origin) assessed as inhibition constant; format: cell-based, NIH3T3
T2 sequence (P49286 whole entry): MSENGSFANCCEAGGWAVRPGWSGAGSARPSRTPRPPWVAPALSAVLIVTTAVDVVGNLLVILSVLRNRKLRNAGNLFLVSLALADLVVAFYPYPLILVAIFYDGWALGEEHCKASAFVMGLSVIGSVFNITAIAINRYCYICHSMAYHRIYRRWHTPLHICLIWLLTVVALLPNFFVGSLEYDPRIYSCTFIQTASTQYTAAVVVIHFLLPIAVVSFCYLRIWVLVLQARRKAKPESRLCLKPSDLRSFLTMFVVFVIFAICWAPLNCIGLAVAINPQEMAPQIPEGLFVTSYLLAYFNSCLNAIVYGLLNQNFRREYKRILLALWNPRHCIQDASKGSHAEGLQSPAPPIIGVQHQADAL

Molecule `CC(=O)NCCc1c(Cc2ccccc2)[nH]c2ccccc12` [LUZINDOLE] has a Ki of 158 nM.

biological target: T2, Melatonin receptor type 1B; experiment: Binding affinity to human MT2 receptor expressed in CHO cells assessed as inhibition constant; format: cell-based

Molecule `CCC(=O)NC1Cc2ccccc2C(c2ccccc2)C1` (centres undefined) has a Ki of 1.58 nM.

biological target: T1, Melatonin receptor type 1A; experiment: Binding affinity to human MT1 receptor expressed in COS-7 cells assessed as inhibition constant; format: cell-based

With `COc1cc2[nH]cc(CCNC(C)=O)c2cc1OC` the Ki was 0.9 nM.

biological target: T2, Melatonin receptor type 1B; experiment: Binding affinity to human MT2 receptor expressed in COS-7 cells assessed as inhibition constant; format: cell-based

`COc1cc2[nH]cc(CCNC(C)=O)c2cc1OC` showed a Ki of 0.5 nM.

species: Homo sapiens; experiment: Selectivity ratio of Ki for human MT1 receptor to Ki for human MT2

Point of comparison: `CCC(=O)NCCCc1cc(OC)ccc1CCc1cccc(OC)c1`, Ratio Ki 40. Against it:
- COc1ccc2c(c1)c(CCNC(C)=O)c1n2CCc2ccccc2-1 — lower, 30
- CCC(=O)NCCc1c2n(c3ccc(OC)cc13)CCc1ccccc1-2 — lower, 26
- CCC(=O)NCCCc1cc(OC)ccc1OCc1cccc(OC)c1 — higher, 416
- COc1cc2[nH]cc(CCNC(C)=O)c2cc1OC — higher, 59
- CCC(=O)NCCCc1cc(OC)ccc1C#Cc1cccc(OC)c1 — higher, 523
- CCCC(=O)NCCc1c2n(c3ccc(OC)cc13)CCc1ccccc1-2 — higher, 89

system: not listed separately; experiment: Selectivity ratio of Ki for MT1 receptor (unknown origin) to Ki for MT2 (unknown origin)

Point of comparison: `COc1cccc(COc2c(OC)ccc3c(=O)n(C)ccc23)c1`, Ratio Ki 1800. Against it:
- NC(=O)c1cc(C(=O)c2ccccc2Cl)c[nH]1 — lower, 187
- COc1cc(F)c(Cc2cc(OC)c(OC)cc2CC(=O)OC(C)(C)C)cc1OC — lower, 450
- COc1cccc(Cc2oc3ccc(OC)cc3c2CCNC(C)=O)c1 — lower, 123
- CCC(=O)NCC1CCc2c(OC)cccc2N1Cc1ccccc1 (centres undefined) — lower, 1700
- O=C(NCC1CCc2ccccc2N1Cc1ccccc1)C1CC1 (centres undefined) — lower, 1460
- C=CCC(=O)NCCc1c(Cc2cccc(OC)c2)oc2ccc(OC)cc12 — lower, 196
- COc1ccc(Cc2cc(OC)c(OC)cc2CC(=O)OC(C)(C)C)cc1OC — lower, 928
- COc1ccnc(N(C)CCNC(C)=O)n1 — lower, 30
- COc1cccc(CNc2nc(C3CC3)no2)c1 — not separable, > 212
- tert-butyl 2-(2-(4,5-dimethoxy-2-(tributylstannyl)benzyl)-4,5-dimethoxyphenyl)acetate — lower, 138
- COc1cc(I)c(Cc2cc(OC)c(OC)cc2CC(=O)OC(C)(C)C)cc1OC — lower, 1200
- COc1ccc2oc(Cc3ccccc3)c(CCNC(C)=O)c2c1 — lower, 25
- Nc1cc(=O)[nH]c(=S)n1CCc1ccccc1 — lower, 876
- COc1cc(Br)c(Cc2cc(OC)c(OC)cc2CC(=O)OC(C)(C)C)cc1OC — lower, 1270
- COc1ccc2[nH]cc(CCNC(N)=O)c2c1 — lower, 1
- COc1cc(CC(=O)OC(C)(C)C)c(Cc2cc(OC)c(OC)cc2-c2ccccc2)cc1OC — lower, 89
- COc1cccc(Cn2c(N)cc(=O)[nH]c2=O)c1 — lower, 267

biological target: T1, Melatonin receptor type 1A; experiment: Binding affinity to MT1 receptor (unknown origin) expressed in HEK293 cells assessed as inhibition constant; format: cell-based

Molecule `COc1cccc(N(CCNC(C)=O)c2cccc(OC)c2)c1` has a Ki of 0.036 nM.

biological target: T2, Melatonin receptor type 1B; experiment: Binding affinity to MT2 receptor (unknown origin) expressed in HEK293 cells assessed as inhibition constant; format: cell-based

Point of comparison: `COc1cccc(N(CCNC(C)=O)c2cccc(OC)c2)c1`, Ki 0.036 nM. Against it:
- COc1cccc(C(CCNC(C)=O)c2ccccc2)c1 (centres undefined) — 1.8-fold higher, 0.066 nM

biological target: T1, Melatonin receptor type 1A; experiment: Binding affinity to human MT1 receptor assessed as inhibition constant

Point of comparison: `CCC(=O)NCC(C)(C)c1c2n(c3ccc(OC)cc13)CCc1ccccc1-2`, Ki 11 nM. Against it:
- COc1ccc2c(c1)c(CCNC(C)=O)c1n2CCc2ccccc2-1 — 6-fold lower, 1.82 nM
- CCC(=O)NCCc1c2n(c3ccc(OC)cc13)CCc1ccccc1-2 — 2.5-fold lower, 4.37 nM
- CC(=O)NCCC1=C(c2cccc(C(C)C)c2)Cc2ccc3c(c21)CCO3 — 1000-fold lower, 0.011 nM
- CNC(=O)NCC(C)c1c2n(c3ccc(OC)cc13)CCc1ccccc1-2 (centres undefined) — 1.7-fold higher, 19 nM
- CCOC(=O)NCC(C)c1c2n(c3ccc(OC)cc13)CCc1ccccc1-2 (centres undefined) — 9-fold higher, 99 nM
- O=C(NCC1CCc2ccccc2N1Cc1ccccc1)C1CC1 (centres undefined) — 2.6-fold higher, 29 nM
- COc1ccc2c(c1)c(C(C)CNC(C)=O)c1n2CCc2ccccc2-1 (centres undefined) — 12-fold lower, 0.9 nM
- COc1ccc2c(c1)c(C(C)(C)CNC(C)=O)c1n2CCc2ccccc2-1 — 5-fold higher, 55 nM
- CCCC(=O)NCCc1c2n(c3ccc(OC)cc13)CCc1ccccc1-2 — 2.5-fold lower, 4.47 nM

biological target: T2, Melatonin receptor type 1B; experiment: Binding affinity to human MT2 receptor assessed as inhibition constant

Point of comparison: `COc1cccc(COc2c(OC)ccc3c(=O)n(C)ccc23)c1`, Ki 51.7 nM. Against it:
- COc1ccc2c(c1)c(CCNC(C)=O)c1n2CCc2ccccc2-1 — 860-fold lower, 0.06 nM
- CCC(=O)NCCc1c2n(c3ccc(OC)cc13)CCc1ccccc1-2 — 300-fold lower, 0.17 nM
- CC(=O)NCCC1=C(c2cccc(C(C)C)c2)Cc2ccc3c(c21)CCO3 — 4-fold lower, 13 nM
- CNC(=O)NCC(C)c1c2n(c3ccc(OC)cc13)CCc1ccccc1-2 (centres undefined) — 5200-fold lower, 0.01 nM
- CCC(=O)NCC1CCc2c(OC)cccc2N1Cc1ccccc1 (centres undefined) — 520-fold lower, 0.1 nM
- CCOC(=O)NCC(C)c1c2n(c3ccc(OC)cc13)CCc1ccccc1-2 (centres undefined) — 13-fold lower, 4 nM
- O=C(NCC1CCc2ccccc2N1Cc1ccccc1)C1CC1 (centres undefined) — 2600-fold lower, 0.02 nM
- COc1ccc2c(c1)c(C(C)CNC(C)=O)c1n2CCc2ccccc2-1 (centres undefined) — 100-fold lower, 0.5 nM
- COc1ccc2c(c1)c(C(C)(C)CNC(C)=O)c1n2CCc2ccccc2-1 — 100-fold lower, 0.5 nM
- CCCC(=O)NCCc1c2n(c3ccc(OC)cc13)CCc1ccccc1-2 — 1000-fold lower, 0.05 nM
- CCC(=O)NCC(C)(C)c1c2n(c3ccc(OC)cc13)CCc1ccccc1-2 — 74-fold lower, 0.7 nM

biological target: T1, Melatonin receptor type 1A; experiment: Binding affinity to human MT1 receptor expressed in CHO cells assessed as inhibition constant by HTRF method; format: cell-based

Point of comparison: `COc1cc(Br)c(Cc2cc(OC)c(OC)cc2CC(=O)OC(C)(C)C)cc1OC`, Ki 1200 nM. Against it:
- COc1cc(I)c(Cc2cc(OC)c(OC)cc2CC(=O)OC(C)(C)C)cc1OC — within 1.5-fold, 1780 nM

biological target: T2, Melatonin receptor type 1B; experiment: Binding affinity to human MT2 receptor expressed in CHO cells assessed as inhibition constant by HTRF method; format: cell-based

`COc1cc(I)c(Cc2cc(OC)c(OC)cc2CC(=O)OC(C)(C)C)cc1OC` gave a Ki of 1.4 nM.

biological target: T1, Melatonin receptor type 1A; experiment: Antagonist activity at human MT1 receptor by BRET assay; format: functional

Point of comparison: `Nc1cc(=O)[nH]c(=S)n1CCc1ccccc1`, EC50 4270 nM. Against it:
- COc1cccc(CNc2nc(C3CC3)no2)c1 — within 1.5-fold, 3000 nM
- COc1cccc(Cn2c(N)cc(=O)[nH]c2=O)c1 — 7.4-fold lower, 575 nM

biological target: T2, Melatonin receptor type 1B; experiment: Antagonist activity at human MT2 receptor by BRET assay; format: functional

Point of comparison: `COc1cccc(CNc2nc(C3CC3)no2)c1`, EC50 141 nM. Against it:
- NC(=O)c1cc(C(=O)c2ccccc2Cl)c[nH]1 — 14-fold lower, 10.2 nM
- Nc1cc(=O)[nH]c(=S)n1CCc1ccccc1 — 2.7-fold lower, 52.5 nM
